In US8129371B2, “Thienopyrimidine and pyrazolopyrimidine compounds and their use as mTOR kinase and PI3 kinase inhibitors” (Wyeth LLC, priority 2007, dated 2012) one finds IC50 data, which are given here for 17 molecules.

One experiment deals with T1, Human mTOR (FLAG-TOR) (Homo sapiens, UniProt P42345).
T1 construct: FLAG
The experiment in a line: Human mTOR kinase assay with purified enzyme, DELFIA format. It is filed as biochemical. In a few lines:
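DELFIA readout: Eu-anti-P(T389)-S6K antibody (40 ng/mL, 1 h) on captured His6-S6K from the stopped reaction. Kinase step used purified FLAG-tagged human mTOR with test compound in HEPES (pH 7.4)/MnCl2/DTT buffer, 2 h at room temperature (linear 1–6 h), terminated by EDTA/EGTA.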

The subject of a further experiment is prostate line LNCap. The experiment in a line: In vitro cell culture growth assay (MTS), LNCap. It is filed as cell-based. The note with it: Homo sapiens, LNCaP, 72 h, LNCap cells, three days after drug treatment. An outline of the steps: (§1)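 Cells were plated and, one day later, treated with inhibitors. Three days after treatment, viable cell density was measured by MTS dye conversion, read as absorbance at 490 nm. Effects are expressed as percent of control growth versus vehicle-treated cells on the same plate.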

The target in experiment [1] is T2, PI3K (Homo sapiens, UniProt P42336).
T2 construct: PI3 Kinase α IC50; other: PI3 Kinase α; other: PI3 Kinase α isoform, fluorescence polarization
The experiment in a line: Fluorescence polarization assay for PI3K. The class given is biochemical. The conditions noted are these: read-out: PI3 Kinase α IC50. In a few lines: (§2)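 Fluorescence-polarization competition readout: after 30–60 min of PIP2/ATP turnover in 1% DMSO, a stop mix with GST-GRP (70 nM) and red probe (10 nM) was added.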

The target in experiment [2] is T3, PI3K (Homo sapiens, UniProt P48736).
T3 construct: PI3 Kinase γ IC50; other: PI3 Kinase γ; other: PI3 Kinase γ isoform, fluorescence polarization
The experiment in a line: Fluorescence polarization assay for PI3K. It is filed as biochemical. The conditions noted are these: read-out: PI3 Kinase γ IC50. In a few lines:
as §2

The next experiment has as its system breast line MDA468. The experiment in a line: In vitro cell culture growth assay (MTS), MDA468. The conditions noted are these: Homo sapiens, 72 h, MDA468 cells, three days after drug treatment. It is filed as cell-based. An outline of the steps: as §1
The mark [3] stands for this setting: purified human mTOR enzyme, DELFIA format.
The mark [4] stands for this setting: PI3 Kinase α isoform, fluorescence polarization.
The mark [5] stands for this setting: PI3 Kinase γ isoform, fluorescence polarization.

Where two headings read alike, the source gives them in different places. Bounds are passed on as bounds.

T3 sequence (P48736 whole entry, canonical isoform): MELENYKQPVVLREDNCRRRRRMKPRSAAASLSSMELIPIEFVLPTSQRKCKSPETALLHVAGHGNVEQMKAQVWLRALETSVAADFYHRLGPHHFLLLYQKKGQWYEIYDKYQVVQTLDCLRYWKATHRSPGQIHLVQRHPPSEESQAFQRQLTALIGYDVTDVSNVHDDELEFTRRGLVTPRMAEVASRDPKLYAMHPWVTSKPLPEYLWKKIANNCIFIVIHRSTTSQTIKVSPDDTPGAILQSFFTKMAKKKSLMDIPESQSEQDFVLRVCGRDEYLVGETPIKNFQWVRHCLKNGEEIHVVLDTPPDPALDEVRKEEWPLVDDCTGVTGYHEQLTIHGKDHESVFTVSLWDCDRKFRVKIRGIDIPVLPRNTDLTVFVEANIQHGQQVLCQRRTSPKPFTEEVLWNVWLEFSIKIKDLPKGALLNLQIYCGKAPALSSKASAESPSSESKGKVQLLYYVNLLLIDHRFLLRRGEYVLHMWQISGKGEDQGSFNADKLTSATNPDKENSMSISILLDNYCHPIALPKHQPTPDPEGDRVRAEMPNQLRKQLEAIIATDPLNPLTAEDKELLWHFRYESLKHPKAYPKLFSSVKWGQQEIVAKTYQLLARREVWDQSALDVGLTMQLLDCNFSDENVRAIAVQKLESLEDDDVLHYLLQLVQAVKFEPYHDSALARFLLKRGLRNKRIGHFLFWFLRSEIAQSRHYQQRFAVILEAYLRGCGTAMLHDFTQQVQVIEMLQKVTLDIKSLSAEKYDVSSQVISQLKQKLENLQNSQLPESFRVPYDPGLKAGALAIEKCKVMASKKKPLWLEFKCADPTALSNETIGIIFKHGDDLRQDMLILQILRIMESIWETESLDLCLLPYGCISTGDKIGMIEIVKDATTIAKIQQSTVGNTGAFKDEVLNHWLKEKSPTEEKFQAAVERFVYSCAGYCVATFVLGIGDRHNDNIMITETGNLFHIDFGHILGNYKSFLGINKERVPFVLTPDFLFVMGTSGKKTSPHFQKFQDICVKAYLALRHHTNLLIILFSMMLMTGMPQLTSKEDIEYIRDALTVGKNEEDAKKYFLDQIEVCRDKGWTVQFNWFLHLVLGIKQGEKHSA
T2 sequence (P42336 whole entry, canonical isoform): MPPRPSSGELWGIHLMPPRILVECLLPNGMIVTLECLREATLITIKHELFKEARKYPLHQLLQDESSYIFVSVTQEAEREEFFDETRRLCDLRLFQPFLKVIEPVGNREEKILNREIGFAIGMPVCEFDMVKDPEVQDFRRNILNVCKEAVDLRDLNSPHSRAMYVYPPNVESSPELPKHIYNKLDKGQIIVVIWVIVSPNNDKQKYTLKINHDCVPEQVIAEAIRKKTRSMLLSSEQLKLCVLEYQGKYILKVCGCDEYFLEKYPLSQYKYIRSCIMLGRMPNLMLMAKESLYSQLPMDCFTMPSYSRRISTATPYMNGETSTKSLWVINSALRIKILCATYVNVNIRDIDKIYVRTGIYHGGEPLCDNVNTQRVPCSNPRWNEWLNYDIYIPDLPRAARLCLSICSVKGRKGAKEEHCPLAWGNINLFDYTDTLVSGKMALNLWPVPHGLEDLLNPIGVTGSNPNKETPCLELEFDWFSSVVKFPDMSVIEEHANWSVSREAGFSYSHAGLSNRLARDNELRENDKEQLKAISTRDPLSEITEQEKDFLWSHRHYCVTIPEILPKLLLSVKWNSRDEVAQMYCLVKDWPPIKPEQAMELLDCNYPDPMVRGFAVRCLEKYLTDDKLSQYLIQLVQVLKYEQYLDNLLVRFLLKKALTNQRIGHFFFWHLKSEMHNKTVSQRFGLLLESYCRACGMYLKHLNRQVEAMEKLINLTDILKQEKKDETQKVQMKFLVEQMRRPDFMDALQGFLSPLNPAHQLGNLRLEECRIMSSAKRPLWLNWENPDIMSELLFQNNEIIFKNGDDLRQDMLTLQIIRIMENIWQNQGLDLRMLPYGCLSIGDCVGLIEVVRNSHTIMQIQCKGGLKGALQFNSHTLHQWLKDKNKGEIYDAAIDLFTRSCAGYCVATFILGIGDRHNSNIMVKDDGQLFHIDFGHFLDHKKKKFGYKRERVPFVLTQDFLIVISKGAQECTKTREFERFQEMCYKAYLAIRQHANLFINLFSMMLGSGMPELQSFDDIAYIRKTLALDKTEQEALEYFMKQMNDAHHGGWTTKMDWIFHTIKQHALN

Take `CCn1ncc2c(N3CC4CCC(C3)O4)nc(-c3ccc(NC(=O)Nc4ccc(N(C)C)nc4)cc3)nc21` [Example 284, 1-[6-(dimethylamino)pyridin-3-yl]-3-{4-[1-ethyl-4-(8-oxa-3-azabicyclo[3.2.1]oct-3-yl)-1H-pyrazolo[3,4-d]pyrimidin-6-yl]phenyl}urea]: the IC50 against Human mTOR (FLAG-TOR) is 1.5 nM; with prostate line LNCap, 6 nM; at PI3K [1] (PI3 Kinase α), 419 nM; on PI3K [2] (PI3 Kinase γ), more than 10000 nM; in the experiment on breast line MDA468, 80 nM.
As to `O=C(Nc1ccc(-c2nc(N3CC4CCC(C3)O4)c3cnn(C4CCC5(CC4)OCCO5)c3n2)cc1)NC1CC1` [Example 126, 1-cyclopropyl-3-{4-[1-(1,4-dioxaspiro[4.5]dec-8-yl)-4-(8-oxa-3-azabicyclo[3.2.1]oct-3-yl)-1H-pyrazolo[3,4-d]pyrimidin-6-yl]phenyl}urea], the half-inhibitory concentration (IC50) against Human mTOR (FLAG-TOR) is 0.22 nM; in the experiment on prostate line LNCap, 2 nM; on PI3K [1] (PI3 Kinase α) it was 12000 nM; at PI3K [2] (PI3 Kinase γ) it was more than 10000 nM; in the experiment with breast line MDA468, 58 nM.
Consider `Cn1ncc2c(N3CC4CCC(C3)O4)nc(-c3ccc(NC(=O)Nc4ccc(CO)cc4)cc3)nc21` [Example 231, 1-[4-(hydroxymethyl)phenyl]-3-{4-[1-methyl-4-(8-oxa-3-azabicyclo[3.2.1]oct-3-yl)-1H-pyrazolo[3,4-d]pyrimidin-6-yl]phenyl}urea], for which the IC50 against Human mTOR (FLAG-TOR) is 0.13 nM; in the experiment on prostate line LNCap, less than 1 nM; at PI3K [1] (PI3 Kinase α), 47 nM; at PI3K [2] (PI3 Kinase γ), 468 nM; in the experiment on breast line MDA468, less than 1 nM.
As to `CNC(=O)Nc1ccc(-c2nc(N3CC4CCC(C3)O4)c3cnn(C4CCN(C(=O)OC(C)(C)C)CC4)c3n2)cc1` [Example 8, tert-butyl 4-[6-{4-[(methylcarbamoyl)amino]phenyl}-4-(8-oxa-3-azabicyclo[3.2.1]oct-3-yl)-1H-pyrazolo[3,4-d]pyrimidin-1-yl]piperidine-1-carboxylate], the 50% inhibitory concentration (IC50) against Human mTOR (FLAG-TOR) was 0.28 nM; in the experiment on prostate line LNCap it was less than 27 nM; at PI3K [1] (PI3 Kinase α) it was 1480 nM; on PI3K [2] (PI3 Kinase γ), more than 10000 nM; in the experiment with breast line MDA468, 180 nM.
As to `O=C(Nc1ccc(CO)cc1)Nc1ccc(-c2nc(N3C4CCC3COC4)c3cnn(CC(F)(F)F)c3n2)cc1` [Example 269, 1-[4-(hydroxymethyl)phenyl]-3-{4-[4-(3-oxa-8-azabicyclo[3.2.1]oct-8-yl)-1-(2,2,2-trifluoroethyl)-1H-pyrazolo[3,4-d]pyrimidin-6-yl]phenyl}urea], the IC50 is 0.079 nM on Human mTOR (FLAG-TOR); less than 1 nM in the experiment with prostate line LNCap; 117 nM on PI3K [1] (PI3 Kinase α); 2130 nM at PI3K [2] (PI3 Kinase γ); less than 1 nM in the experiment with breast line MDA468.
`CNC(=O)Nc1ccc(-c2nc(N3CC4CCC(C3)O4)c3cnn(C4CCC(O)CC4)c3n2)cc1` (stereo not shown) [Example 107, 1-(4-(4-(8-oxa-3-azabicyclo[3.2.1]octan-3-yl)-1-(4-hydroxycyclohexyl)-1H-pyrazolo[3,4-d]pyrimidin-6-yl)phenyl)-3-methylurea]: the concentration for half-maximal inhibition (IC50) against Human mTOR (FLAG-TOR) came to 0.24 nM; in the experiment on prostate line LNCap it was 48 nM; at PI3K [1] (PI3 Kinase α) it was 1310 nM; on PI3K [2] (PI3 Kinase γ), 5000 nM; with breast line MDA468, 190 nM.
Regarding `CNC(=O)Nc1ccc(-c2nc(N3CC4CCC(C3)O4)c3cnn(C4CCC5(CCCO5)CC4)c3n2)cc1` (single isomer, unassigned) [Example 389, 1-methyl-3-(4-{4-(8-oxa-3-azabicyclo[3.2.1]oct-3-yl)-1-[(5r,8r)-1-oxaspiro[4.5]dec-8-yl]-1H-pyrazolo[3,4-d]pyrimidin-6-yl}phenyl)urea], the IC50 on Human mTOR (FLAG-TOR) (setting [3]) was 0.285 nM; in the experiment on prostate line LNCap, 2 nM; on PI3K [1] (setting [4]) it was 909 nM; on PI3K [2] (setting [5]), more than 10000 nM; in the experiment with breast line MDA468, 17 nM.
As to `O=C(Nc1ccc(-c2nc(N3CC4CCC(C3)O4)c3cnn(CCO)c3n2)cc1)OCCO` [Example 195, 2-hydroxyethyl {4-[1-(2-hydroxyethyl)-4-(8-oxa-3-azabicyclo[3.2.1]oct-3-yl)-1H-pyrazolo[3,4-d]pyrimidin-6-yl]phenyl}carbamate], the half-inhibitory concentration (IC50) is 4.9 nM at Human mTOR (FLAG-TOR); 640 nM in the experiment on prostate line LNCap; 1880 nM on PI3K [1] (PI3 Kinase α); more than 10000 nM on PI3K [2] (PI3 Kinase γ); 1500 nM in the experiment on breast line MDA468.
`CCNC(=O)Nc1ccc(-c2nc(N3CC4CCC(C3)O4)c3cnn(C4CCNCC4)c3n2)cc1` [Example 28, 1-ethyl-3-{4-[4-(8-oxa-3-azabicyclo[3.2.1]oct-3-yl)-1-piperidin-4-yl-1H-pyrazolo[3,4-d]pyrimidin-6-yl]phenyl}urea]: the IC50 against Human mTOR (FLAG-TOR) was 1.8 nM; in the experiment with prostate line LNCap, 790 nM; on PI3K [1] (PI3 Kinase α) it was 2160 nM; at PI3K [2] (PI3 Kinase γ) it was 9000 nM; in the experiment with breast line MDA468, 1300 nM.
`Cn1ncc2c(N3CC4CCC(C3)O4)nc(-c3ccc(NC(=O)NCCF)cc3)nc21` [Example 52, 1-(2-fluoroethyl)-3-{4-[1-methyl-4-(8-oxa-3-azabicyclo[3.2.1]oct-3-yl)-1H-pyrazolo[3,4-d]pyrimidin-6-yl]phenyl}urea]: the IC50 was 1 nM against Human mTOR (FLAG-TOR); 100 nM in the experiment on prostate line LNCap; 877 nM at PI3K [1] (PI3 Kinase α); 9500 nM on PI3K [2] (PI3 Kinase γ); 500 nM in the experiment with breast line MDA468.
Consider `CN1CCN(C2CCC(n3ncc4c(N5CC6CCC(C5)O6)nc(-c5ccc(NC(=O)NCCF)cc5)nc43)CC2)CC1` (stereo not shown) [Example 371, 1-(2-fluoroethyl)-3-(4-{1-[4-(4-methylpiperazin-1-yl)cyclohexyl]-4-(8-oxa-3-azabicyclo[3.2.1]oct-3-yl)-1H-pyrazolo[3,4-d]pyrimidin-6-yl}phenyl)urea], for which the IC50 was 1.3 nM on Human mTOR (FLAG-TOR) (setting [3]); 190 nM with prostate line LNCap; 2490 nM at PI3K [1] (setting [4]); 8930 nM at PI3K [2] (setting [5]); 460 nM with breast line MDA468.
For the molecule `O=C(Nc1ccncc1)Nc1ccc(-c2nc(N3CC4CCC(C3)O4)c3cnn(C4CCC5(CC4)OCCO5)c3n2)cc1` [Example 128, 1-{4-[1-(1,4-dioxaspiro[4.5]dec-8-yl)-4-(8-oxa-3-azabicyclo[3.2.1]oct-3-yl)-1H-pyrazolo[3,4-d]pyrimidin-6-yl]phenyl}-3-pyridin-4-ylurea], the IC50 against Human mTOR (FLAG-TOR) was 0.125 nM; with prostate line LNCap, less than 1 nM; at PI3K [1] (PI3 Kinase α), 220 nM; at PI3K [2] (PI3 Kinase γ), 1930 nM; in the experiment with breast line MDA468 it was 1 nM.
Taken in the same sequence, the figures for `COC(=O)N1CCC(n2ncc3c(N4CC5CCC(C4)O5)nc(-c4ccc(NC(=O)NCCN5CCN(C)CC5)cc4)nc32)CC1` [Example 170, methyl 4-{6-[4-({[2-(4-methylpiperazin-1-yl)ethyl]carbamoyl}amino)phenyl]-4-(8-oxa-3-azabicyclo[3.2.1]oct-3-yl)-1H-pyrazolo[3,4-d]pyrimidin-1-yl}piperidine-1-carboxylate] were 51 nM, 1300 nM, 705 nM, 4420 nM and 6000 nM.
Taken in the same sequence, the figures for `CNC(=O)Nc1ccc(-c2nc(N3C[C@@H]4C[C@H]3CO4)c3cnn(CC(F)(F)F)c3n2)cc1` [Example 292, 1-methyl-3-(4-{4-[(1S,4S)-2-oxa-5-azabicyclo[2.2.1]hept-5-yl]-1-(2,2,2-trifluoroethyl)-1H-pyrazolo[3,4-d]pyrimidin-6-yl}phenyl)urea] were 5.5 nM, 80 nM, 2090 nM, more than 10000 nM and 300 nM.
Take `O=C(Nc1ccc(-c2nc(N3CC4CCC(C3)O4)c3cnn(CC(F)(F)F)c3n2)cc1)Nc1cccnc1` [Example 4, 1-{4-[4-(8-oxa-3-azabicyclo[3.2.1]oct-3-yl)-1-(2,2,2-trifluoroethyl)-1H-pyrazolo[3,4-d]pyrimidin-6-yl]phenyl}-3-pyridin-3-ylurea]: the IC50 is 0.18 nM against Human mTOR (FLAG-TOR); less than 27 nM in the experiment with prostate line LNCap; 345 nM at PI3K [1] (PI3 Kinase α); 2140 nM on PI3K [2] (PI3 Kinase γ); less than 27 nM with breast line MDA468.
On to `CCn1ncc2c(N3CC4CCC(C3)O4)nc(-c3ccc(NC(=O)NCCOCCN)cc3)nc21` [Example 225, 1-[2-(2-aminoethoxy)ethyl]-3-{4-[1-ethyl-4-(8-oxa-3-azabicyclo[3.2.1]oct-3-yl)-1H-pyrazolo[3,4-d]pyrimidin-6-yl]phenyl}urea], for which the IC50 at Human mTOR (FLAG-TOR) is 26.5 nM; in the experiment with prostate line LNCap, 2400 nM; at PI3K [1] (PI3 Kinase α), 1390 nM; on PI3K [2] (PI3 Kinase γ), more than 10000 nM; in the experiment with breast line MDA468, 4000 nM.
On to `CN1CCN(c2ccc(NC(=O)Nc3ccc(-c4nc(N5CC6CCC(C5)O6)c5cnn(CCF)c5n4)cc3)cc2)CC1` [Example 246, 1-{4-[1-(2-fluoroethyl)-4-(8-oxa-3-azabicyclo[3.2.1]oct-3-yl)-1H-pyrazolo[3,4-d]pyrimidin-6-yl]phenyl}-3-[4-(4-methylpiperazin-1-yl)phenyl]urea], for which the IC50 against Human mTOR (FLAG-TOR) is 0.698 nM; in the experiment with prostate line LNCap, less than 1 nM; at PI3K [1] (PI3 Kinase α), 96 nM; at PI3K [2] (PI3 Kinase γ), 1560 nM; in the experiment with breast line MDA468 it was 7 nM.
